The record followed here is US11414422B2, “Substituted pyrido[4,3-b]indoles and azepino[4,5-b]indoles as inhibitors of cGAS” (The Rockefeller University, priority 2018, dated 2022).

T1 sequence (Q8N884 whole entry): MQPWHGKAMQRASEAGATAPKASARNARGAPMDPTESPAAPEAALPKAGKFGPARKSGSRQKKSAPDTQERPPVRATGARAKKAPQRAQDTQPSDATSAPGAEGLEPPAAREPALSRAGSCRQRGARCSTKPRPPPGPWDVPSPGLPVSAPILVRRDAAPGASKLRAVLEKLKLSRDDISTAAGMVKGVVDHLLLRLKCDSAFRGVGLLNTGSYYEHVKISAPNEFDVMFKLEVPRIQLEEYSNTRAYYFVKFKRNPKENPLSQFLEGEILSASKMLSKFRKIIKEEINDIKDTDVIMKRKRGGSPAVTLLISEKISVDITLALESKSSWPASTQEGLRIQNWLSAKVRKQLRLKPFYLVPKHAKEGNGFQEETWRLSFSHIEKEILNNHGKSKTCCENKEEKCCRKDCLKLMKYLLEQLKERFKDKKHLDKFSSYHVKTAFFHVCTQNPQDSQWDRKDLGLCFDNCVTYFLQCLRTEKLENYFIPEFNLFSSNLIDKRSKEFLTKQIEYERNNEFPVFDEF

The assay has as its target T1, h-cGAS (Homo sapiens, UniProt Q8N884).
T1 construct: The final concentration of full-length h-cGAS, dsDNA, ATP, and GTP were 100 nM
Put plainly: cGAS biochemical assay, RapidFire 365 mass spectrometry (RF-MS). Conditions: full-length h-cGAS 100 nM, dsDNA 25 nM, ATP and GTP 100 μM, 7 h at RT.
The term IC50 denotes the concentration that gives 50% inhibition. High values mean lower potency, low ones higher potency. For the molecule `COc1ncccc1-c1cc(Cl)c(Cl)c2[nH]c3c(c12)CN(C(=O)CO)CC3` [TDI-008110], the IC50 was 2970 nM.
Consider `O=C(CO)N1CCc2[nH]c3c(Cl)c(Cl)cc(-c4cccc(F)c4)c3c2C1` [TDI-008091], for which it took 31 nM to reach half-maximal inhibition (IC50).
Turning to `O=C(CO)N1CCc2[nH]c3c(Cl)c(Cl)cc(-c4ccn(C(F)F)n4)c3c2C1` [TDI-008474], the IC50 is 18 nM.
Under `Cc1cc(-c2cc(Cl)c(Cl)c3[nH]c4c(c23)CN(C(=O)CO)CC4)ccn1` [TDI-008445] stands 35 nM; under `N#Cc1c(Cl)ccc2c3c([nH]c12)CCN(C(=O)CO)C3` [TDI-006931], 402 nM; under `O=C(CO)N1CCc2[nH]c3c(Cl)c(Cl)cc(-c4cccs4)c3c2C1` [TDI-008081], 47.9 nM.
Under `O=C1COc2cc(-c3cc(Cl)c(Cl)c4[nH]c5c(c34)CN(C(=O)CO)CC5)ccc2N1` [TDI-008462] stands 1200 nM; under `O=C(CO)N1CCc2[nH]c3c(Cl)c(Cl)cc(Cc4ccc(-n5cccn5)cc4)c3c2C1` [TDI-008443], 586 nM; under `O=C(CO)N1CCc2[nH]c3c(Cl)c(Cl)cc(-c4ccncc4)c3c2C1` [TDI-008072], 97.5 nM.
The figure for `O=C(CO)N1CCc2[nH]c3c(Cl)c(Cl)cc(-c4cnc(C(F)(F)F)nc4)c3c2C1` [TDI-008451] is 9780 nM; for `COc1ccc(-c2cc(Cl)c(Cl)c3[nH]c4c(c23)CN(C(=O)CO)CC4)nc1` [TDI-008105] it is 107 nM; for `O=C(CO)N1CCc2[nH]c3c(Cl)c(Br)ccc3c2C1` [TDI-006354] it is 43 nM.
As for `Cn1cccc1-c1cc(Cl)c(Cl)c2[nH]c3c(c12)CN(C(=O)CO)CC3` [TDI-008075], the IC50 turned out to be 469 nM.
Consider `COCC(=O)N1CCc2[nH]c3c(OC)c(Cl)ccc3c2C1` [TDI-005777], for which 24700 nM corresponded to half-maximal inhibition (IC50).
Molecule `COCC(=O)N1CCc2[nH]c3c(Cl)ccc(Cl)c3c2C1` [TDI-005325] showed an IC50 of 3230 nM.
Under `N#Cc1cccc(-c2cc(Cl)c(Cl)c3[nH]c4c(c23)CN(C(=O)CO)CC4)c1` [TDI-008098] stands 85.3 nM; under `Nc1ccccc1-c1cc(Cl)c(Cl)c2[nH]c3c(c12)CN(C(=O)CO)CC3` [TDI-008082], 322 nM; under `O=C(CO)N1CCc2[nH]c3c(Cl)c(Cl)cc(-c4ccccc4F)c3c2C1` [TDI-008090], 26.7 nM.
Molecule `O=C(CO)N1CCc2[nH]c3c(Cl)c(Cl)cc(-c4ccc5c(c4)OCO5)c3c2C1` [TDI-008457] displayed an IC50 of 44.6 nM.
Under `Cn1nccc1-c1cc(Cl)c(Cl)c2[nH]c3c(c12)CN(C(=O)CO)CC3` [TDI-008444] stands 3240 nM.
In turn, `COCC(=O)N1CCc2[nH]c3c(Cl)cc(Cl)cc3c2C1` [TDI-004576] showed an IC50 of 3080 nM.
The figure for `CNC(=O)c1cc(Cl)c(F)c2[nH]c3c(c12)CN(C(=O)CO)CC3` [TDI-008520] is 1040 nM.
In turn, `N#Cc1ncc(-c2cc(Cl)c(Cl)c3[nH]c4c(c23)CN(C(=O)CO)CC4)cn1` [TDI-008100] displayed an IC50 of 5270 nM.
As for `COc1cccnc1-c1cc(Cl)c(Cl)c2[nH]c3c(c12)CN(C(=O)CO)CC3` [TDI-008103], the IC50 amounted to 44.1 nM.
As for `Cn1c(=O)[nH]c2cc(-c3cc(Cl)c(Cl)c4[nH]c5c(c34)CN(C(=O)CO)CC5)ccc21` [TDI-008461], 344 nM corresponded to half-maximal inhibition (IC50).
Under `COCC(=O)N1CCc2[nH]c3c(Br)c(Cl)ccc3c2C1` [TDI-005776] stands 203 nM; under `O=C(CO)N1CCc2[nH]c3c(Cl)c(Cl)cc(CN4CCCC4)c3c2C1` [TDI-008440], 2230 nM; under `Nc1ncccc1-c1cc(Cl)c(Cl)c2[nH]c3c(c12)CN(C(=O)CO)CC3` [TDI-008086], 2050 nM.
Under `CC(=O)Nc1cc(Cl)c(F)c2[nH]c3c(c12)CN(C(=O)CO)CC3` [TDI-008522] stands 365 nM; under `Nc1ccc(-c2cc(Cl)c(Cl)c3[nH]c4c(c23)CN(C(=O)CO)CC4)cc1` [TDI-008083], 20.3 nM; under `CCn1c2c(c3ccc(Br)c(F)c31)CN(C(=O)CO)CC2` [TDI-008062], 1030 nM.
`Cn1c2c(c3c(-c4cn[nH]c4)cc(Cl)c(Cl)c31)CN(C(=O)CO)CC2` [TDI-007945] had an IC50 of 125 nM.
Molecule `O=C(CO)N1CCc2[nH]c3c(Cl)c(Cl)cc(CN4CCOCC4)c3c2C1` [TDI-008442] registered an IC50 of 706 nM.
As for `Cc1cc(-c2cc(Cl)c(Cl)c3[nH]c4c(c23)CN(C(=O)CO)CC4)nn1C` [TDI-008093], the IC50 came to 330 nM.
The figure for `COc1ncc(-c2cc(Cl)c(Cl)c3[nH]c4c(c23)CN(C(=O)CO)CC4)s1` [TDI-008114] is 62.2 nM.
In turn, `O=C(CO)N1CCc2[nH]c3c(Cl)c(Cl)cc(-c4cncc(F)c4)c3c2C1` [TDI-008448] yielded an IC50 of 25.9 nM.
Under `O=C(CO)N1CCc2[nH]c3c(F)c(Cl)c(F)cc3c2C1` [TDI-007544] stands 166 nM; under `O=C(CO)N1CCc2[nH]c3c(Cl)c(F)ccc3c2C1` [TDI-006359], 440 nM; under `O=C(CO)N1CCc2[nH]c3c(Cl)c(Cl)cc(-c4cncc(CO)c4)c3c2C1` [TDI-008450], 54.5 nM.
For `N#Cc1ccccc1-c1cc(Cl)c(Cl)c2[nH]c3c(c12)CN(C(=O)CO)CC3` [TDI-008097], the IC50 was 42.2 nM.
For `O=C(CO)N1CCc2[nH]c3c(Cl)c(Cl)cc(-c4ccsc4)c3c2C1` [TDI-008080], the concentration for half-maximal inhibition (IC50) turned out to be 66.8 nM.
In turn, `Cc1nc2ccc(-c3cc(Cl)c(Cl)c4[nH]c5c(c34)CN(C(=O)CO)CC5)cc2n1C` [TDI-008460] showed a half-maximal inhibitory concentration (IC50) of 830 nM.
Take `CN1CC=C(c2cc(Cl)c(Cl)c3[nH]c4c(c23)CN(C(=O)CO)CC4)CC1` [TDI-008449]: the IC50 was determined as 420 nM.
Under `Cc1cncc(-c2cc(Cl)c(Cl)c3[nH]c4c(c23)CN(C(=O)CO)CC4)c1` [TDI-008447] stands 24.9 nM; under `Cc1c(Cl)ccc2c3c([nH]c12)CCN(C(=O)CO)C3` [TDI-006360], 327 nM.
The figure for `O=C(CO)N1CCc2[nH]c3c(Cl)c(Cl)cc(-c4cncc(C(F)(F)F)c4)c3c2C1` [TDI-008455] is 154 nM.
Under `COCC(=O)N1CCc2c(c3ccc(Br)c(F)c3n2C)C1` [TDI-008034] stands 401 nM; under `O=C(CO)N1CCc2[nH]c3c(Cl)c(Cl)cc(-c4cccc(O)c4)c3c2C1` [TDI-008085], 30.9 nM; under `CC1CN(C(=O)CO)Cc2c1[nH]c1c(Cl)c(Cl)ccc21` (stereo not drawn) [TDI-007553], 300 nM.
For the molecule `Cc1nn(C)cc1-c1cc(Cl)c(Cl)c2[nH]c3c(c12)CN(C(=O)CO)CC3` [TDI-008092], the IC50 was 1840 nM.
The figure for `O=C(CO)N1CCc2[nH]c3c(Cl)c(Cl)cc(CC4CCCC4)c3c2C1` [TDI-008439] is 663 nM.
In the case of `COCC(=O)N1CCc2[nH]c3cc(Br)ccc3c2C1` [TDI-005855], the IC50 is 1740 nM.
With `COCCOCC(=O)N1CCc2[nH]c3c(Cl)c(Cl)ccc3c2C1` [TDI-005719], it took 3290 nM to reach half-maximal inhibition (IC50).
Take `O=C(CO)N1CCc2[nH]c3c(Cl)c(Cl)cc(-c4ccn[nH]4)c3c2C1` [TDI-007457]: the IC50 worked out at 54.1 nM.
The figure for `CN(C)c1cccc(-c2cc(Cl)c(Cl)c3[nH]c4c(c23)CN(C(=O)CO)CC4)c1` [TDI-008120] is 438 nM; for `O=C(CO)N1CCc2[nH]c3c(Cl)c(Cl)cc(-c4cnn(C(F)F)c4)c3c2C1` [TDI-008115] it is 45.1 nM; for `Cc1cc(-c2cc(Cl)c(Cl)c3[nH]c4c(c23)CN(C(=O)CO)CC4)n(C)n1` [TDI-008095] it is 929 nM.
The figure for `CNc1ccc(-c2cc(Cl)c(Cl)c3[nH]c4c(c23)CN(C(=O)CO)CC4)cn1` [TDI-008101] is 105 nM.
The figure for `O=C(CO)N1CCc2[nH]c3c(Cl)c(Cl)ccc3c2CC1` [TDI-006183] is 469 nM; for `NC(=O)c1cccc(-c2cc(Cl)c(Cl)c3[nH]c4c(c23)CN(C(=O)CO)CC4)c1` [TDI-008118] it is 76.8 nM; for `N#Cc1cc2c3c([nH]c2c(F)c1Cl)CCN(C(=O)CO)C3` [TDI-007542] it is 1230 nM.
The molecule `O=C(CO)N1CCc2[nH]c3c(Br)c(Cl)ccc3c2C1` [TDI-006261] returned an IC50 of 140 nM.
In turn, `COCC(=O)N1CCc2c(c3cc(Cl)cc(Cl)c3n2C)C1` [TDI-004581] gave an IC50 of 2410 nM.
The figure for `COc1cc(Cl)c(Cl)c2[nH]c3c(c12)CN(C(=O)CO)CC3` [TDI-006622] is 49 nM.
As to `COCCc1cc(Cl)c(Cl)c2[nH]c3c(c12)CN(C(=O)CO)CC3` [TDI-008438], the IC50 was 112 nM.
Under `COc1cccc(-c2cc(Cl)c(Cl)c3[nH]c4c(c23)CN(C(=O)CO)CC4)n1` [TDI-008102] stands 40.2 nM; under `O=C(CO)N1CCc2[nH]c3c(Cl)c(Cl)cc(C4=CCOCC4)c3c2C1` [TDI-008079], 890 nM; under `C[C@@H]1CN(C(=O)CO)Cc2c1[nH]c1c(Cl)c(Cl)ccc21` [TDI-007576], 323 nM.
Under `Cn1nc(C(F)(F)F)cc1-c1cc(Cl)c(Cl)c2[nH]c3c(c12)CN(C(=O)CO)CC3` [TDI-008452] stands 2910 nM; under `Cc1nc(C)c(-c2cc(Cl)c(Cl)c3[nH]c4c(c23)CN(C(=O)CO)CC4)[nH]1` [TDI-008605], 568 nM.
On to `Cc1ncccc1-c1cc(Cl)c(Cl)c2[nH]c3c(c12)CN(C(=O)CO)CC3` [TDI-008446], for which the IC50 was found to be 901 nM.
Take `COCC(=O)N1CCc2[nH]c3c(Cl)c(C#N)ccc3c2C1` [TDI-006171]: 7690 nM corresponded to half-maximal inhibition (IC50).
The figure for `O=C(CO)N1CCc2[nH]c3c(Cl)c(Cl)cc(-c4ccc(F)cc4)c3c2C1` [TDI-008089] is 64.4 nM; for `C#Cc1ccc2c3c([nH]c2c1F)CCN(C(=O)CO)C3` [TDI-007433] it is 1450 nM; for `Cc1[nH]ncc1-c1cc(Cl)c(Cl)c2[nH]c3c(c12)CN(C(=O)CO)CC3` [TDI-008076] it is 11400 nM.
The figure for `Cc1ccc2c3c([nH]c2c1C)CCN(C(=O)CO)C3` [TDI-006339] is 7630 nM; for `COCC(=O)N1CCc2[nH]c3c(Cl)c(Br)ccc3c2C1` [TDI-005854] it is 198 nM; for `COCC(=O)N1CCc2c(c3cc(Cl)cc(Cl)c3n2CC(F)(F)F)C1` [TDI-005021] it is 13900 nM.
